These results are taken from patent publication US20260097047A1, “Small molecule inhibitors of the ribosome biogenesis factor NVL2” (Board of Regents, The University of Texas System, priority 2023, published 2026).

Read-outs that look alike come from different tables or passages of the source. Where only a bound is given, the exact number is not on record here.

The test system of one experiment is p53 and p21. As to the kind of experiment: p53 and p21 protein levels in HCT116 cells. In kind it is cell-based, human. The source says:
Inhibition of 60S ribosome biogenesis is known to induce the stability and upregulation of p53, which could serve as a potential pharmacodynamics marker for MM017 in HCT116 cells. […] We used PRISM (Broad Institute) to evaluate the selectivity of MM017 across 902 cancer cell lines and then correlated this selectivity to 1,215 clinical and pre-clinical compounds in the PRISM database. […] These observations indicate that oxaliplatin and carmofur, like MM017, target ribosome biogenesis.

A further experiment has as its system HCT116 cells. As to the kind of experiment: Cell viability assay (CellTiter-Glo, 72 hours) in HCT116 human colorectal cancer cells. It is filed as cell-based. Put shortly:
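2,000 cells/well adhered overnight, then compound added by digital dispenser with DMSO normalized to 0.5%. Viability read after 72 h at 37 °C by ATP-based CellTiter-Glo luminescence. IC50 from ten-point curves baseline-corrected to vehicle, five-parameter asymmetric least-squares fit.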
For orientation: In ATP-based viability assays light output follows the ATP content of the culture.

The next experiment concerns the target T1, NVL (Homo sapiens, UniProt O15381).
T1 sequence (O15381 1-856): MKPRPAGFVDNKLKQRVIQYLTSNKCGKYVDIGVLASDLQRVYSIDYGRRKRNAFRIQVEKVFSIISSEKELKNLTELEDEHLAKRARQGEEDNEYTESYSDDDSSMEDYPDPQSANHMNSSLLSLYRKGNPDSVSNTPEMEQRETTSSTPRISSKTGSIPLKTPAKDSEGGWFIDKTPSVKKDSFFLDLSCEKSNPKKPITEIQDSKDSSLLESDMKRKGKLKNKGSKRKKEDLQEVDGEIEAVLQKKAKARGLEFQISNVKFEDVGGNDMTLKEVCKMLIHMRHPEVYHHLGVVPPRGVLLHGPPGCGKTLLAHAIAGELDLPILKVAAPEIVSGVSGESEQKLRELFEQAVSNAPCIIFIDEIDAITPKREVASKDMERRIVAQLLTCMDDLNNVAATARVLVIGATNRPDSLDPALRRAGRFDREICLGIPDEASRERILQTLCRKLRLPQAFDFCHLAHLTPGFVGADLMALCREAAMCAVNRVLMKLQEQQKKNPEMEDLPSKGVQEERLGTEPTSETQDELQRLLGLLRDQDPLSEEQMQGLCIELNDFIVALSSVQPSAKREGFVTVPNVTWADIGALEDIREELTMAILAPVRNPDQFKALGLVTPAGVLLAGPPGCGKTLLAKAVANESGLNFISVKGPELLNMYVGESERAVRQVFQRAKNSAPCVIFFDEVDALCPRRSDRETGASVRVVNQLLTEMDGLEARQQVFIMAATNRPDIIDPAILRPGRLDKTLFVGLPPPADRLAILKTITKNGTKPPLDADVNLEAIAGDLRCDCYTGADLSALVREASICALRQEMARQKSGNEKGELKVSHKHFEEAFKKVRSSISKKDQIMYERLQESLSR
As to the kind of experiment: Photo-crosslinking, affinity purification and probe displacement of NVL in cells. In kind it is binding. More on the design: endogenous in cells. The source says: To test whether NVL2 mutations prevent compound binding, we synthesized MM0514, a crosslinker derivative of MM017. MM0514 contains an aryl azide, and thus is capable of covalently modifying target proteins following exposure to UV light. MM0514 also contains an alkyne group providing a “handle” to purify bound proteins using click chemistry. Critically, MM0514 retains on-target activity to HCT116 cells since NVL2^R403W mutant cells are resistant. We crosslinked either parental or NVL2^R403W HCT116 cells to MM0514 and analyzed NVL2 binding. […] To characterize the binding site, we solved the cryo-EM structure of NVL2 with MM017. MM017 binds to a single site in the asymmetric hexamer near the D subunit. Consistent with our binding data, the mutations map near the binding site, including R403, which is mutated to tryptophan in a resistant clone and predicted to prevent binding of MM017 or related analogs. The cryo-EM structure of NVL2 with MM017 provides further evidence of target identification and also a tool for optimizing a bioavailable compound.
To assess whether MM017 binds directly to NVL in cells, we used a MM017 crosslinker (Probe compound (2), Table A) that is UV-activatable and contains an alkyne that can be coupled to biotin for affinity purification. […]

The subject of a further experiment is HCT116 NVL^P307T cells. As to the kind of experiment: Cell viability in compound-resistant HCT116 NVL^P307T cells. In kind it is cell-based, human. From the text:
Assessing the ability of NVL2 inhibitors to selectively kill WT versus NVL2^mut HCT116, block ribosome biogenesis and induce p53. We evaluate analogs in the colorectal cancer cell line HCT116 and already available compound-resistant clones. One clone has a mutation in the compound binding site (NVL2^R403W) and another clone (NVL2^P307T) has a mutation distant from the binding site that confers resistance through an unknown effect. Based on our results, analogs that kill HCT116 cells via NVL2 inhibition (on-target) have reduced potency in compound-resistant HCT116 mutant clones. Our analogs have been counter-screened against the NVL2 compound-resistant mutant clones with fold resistance range between 10-100 fold (most analogs 20-50 fold). This counter screen provides a strategy for identifying off-target toxins.
From whole exome sequencing, we identified variants that were acquired during IAA-induced mutagenesis with the hypothesis that genes related to resistance will be mutated in multiple clones. Two genes contained acquired variants in at least 3 of the 15 selected clones: TERT, mutated in 3 of 15 clones, and NVL, mutated in all 15 clones. […] In sum, 57 out of 59 unique clones harbored NVL mutations. The majority of mutations clustered within the D1 AAA+ ATPase domain and frequently affecting the same codons. To test whether these mutations are sufficient for MM017 resistance, we used CRISPR-Cas9 to knock-in two of the most resistant mutations (NVL^P307T, NVL^R403W) and a mutation with intermediate resistance (NVL^H304R). Transfection of cells with sgRNAs targeting these NVL residues in addition to a mutation-encoding repair template yielded an increased rate of resistance when compared to mock treatments.
HCT116 cells were transfected with TransIT-LT (Mirus #MIR2304) according to manufacturer's protocol with a guide RNA (either mock or NVL targeting) in the px330 vector (Addgene, #42230), and 10 nM single stranded deoxyoligonucleotide encoding a specific NVL mutation (see below for specific sequences). 72 hours after transfection, cells were selected by MM017 treatment. The resulting cells were evaluated by cresyl violet staining or collected and the relevant NVL mutations were analyzed by either amplicon or sanger sequencing.
Cell viability assay: In 96-well assay plates (Corning #2903), 2,000 cells were plated per well in 100 μL of medium and allowed to adhere overnight. The next day, compounds suspended in DMSO were dispensed to the assayed wells using a D300e Digital Dispenser (Tecan). All wells were normalized to 0.5% DMSO. 72 hours after incubation at 37° C. in 5% CO2, cell viability was assayed using an ATP-based luminescent viability assay, CellTiter-Glo (Promega #G8462). Substrate was mixed 1:1 with phosphate-buffered saline (PBS) supplemented with 1% Triton X-100, and 40 μL of this mixture was added to the assay wells. Plates were shaken on a microplate shaker for 10 minutes at room temperature. Luminescence (CellTiter-Glo) was recorded using a Synergy 2 microplate reader (BioTek). In Prism 9 software (GraphPad), ten-point dose response curves were plotted with baseline-correction to the vehicle control well, and IC50 values were calculated by curve fitting using asymmetric (five parameter), least squares fit.

Where [1] appears, read: Table 8, analogs of scaffold drawing 43 defined by R^2, R^3, X/Y, W, read-out: Activity (IC50 class, cell viability assay).
Where [2] appears, read: Homo sapiens, HCT-116, Table 5, HCT116, 72 hours, read-out: Activity.

`Cc1cnc(CNC(=O)c2c(=O)c3ccc(N4CCCN(C)CC4)nc3n3c2sc2ccccc23)cn1` [CX-5461, reference compound]: in the experiment on p53 and p21, the “p53 levels in parental HCT116 cells” value is given as “dose-dependent increase in the levels of p53”.

Regarding `COCCN1C(=O)c2ccccc2Sc2cc(NC(=O)c3ccc(OC)cc3)ccc21` [compound 3], the IC50 with HCT116 cells (Homo sapiens, HCT-116, read-out: IC50s (cellular activity of MM017 derivatives)) was 360 nM. Further, the “displacement of MM017-probe from NVL” value at NVL (NVL-FLAG knock-in cell line, increasing doses) is “more effectively displaced MM017-probe”.

On to `C#CCOCCN1C(=O)c2ccccc2Sc2cc(NC(=O)c3ccc(N=[N+]=[N-])cc3)ccc21` [Probe compound 2, 4-Azido-N-(11-oxo-10-(2-(prop-2-yn-1-yloxy)ethyl)-10, 11-dihydro-dibenzo[b,f][1,4]thiazepin-7-yl)benzamide], for which, in the experiment with HCT116 NVL^P307T cells, the “resistance of NVL^P307T cells” value was “comparatively resistant”. For the same compound, in the experiment with HCT116 cells (Homo sapiens, HCT-116, read-out: IC50, proliferation of HCT116 cells), the IC50 was found to be 470 nM. The “NVL crosslinked to / purified with probe” value on NVL (UV light) was “only detected in conditions that included both the MM017-probe and UV light”.

For the compound `CC#CCN1C(=O)c2ccc(Cl)cc2Sc2cc(NC(=O)N3CCCCC3)ccc21`, the IC50 in the experiment on HCT116 cells (Table 1, HCT116, 72 hours, read-out: Activity) is below 500 nM.

On to `COc1ccc(C(=O)Nc2ccc3c(c2)C(C)(O)c2ccccc2C(=O)N3CC#CCl)cc1` (stereo not shown) [Table 9: —CH2CCCl; 4-MeOPh; CMeOH], for which the IC50 in the experiment on HCT116 cells (Table 9, HCT116, 72 hours, read-out: Activity) was below 500 nM.

On to `CC#CCN1C(=O)c2ccccc2Sc2cc(NC(=O)c3ccc(OC)cc3)cnc21` [—CH2CCMe; 4-MeOPh; CH/CH; N], for which, in the experiment on HCT116 cells (setting [1]), the IC50 is below 500 nM.

For `CC#CCN1C(=O)c2ccc(F)cc2Sc2cc(NC(=O)c3ccc(OC)nc3)ccc21` [—CH2CCMe; 6-MeO-pyrid-3-yl; CF/CH; CH], the IC50 in the experiment on HCT116 cells (setting [1]) was below 500 nM.

As to `CC#CCN1C(=O)c2ccccc2Sc2cc(Nc3nc(C)ccc3F)ccc21` [10-(But-2-yn-1-yl)-7-((3-fluoro-6-methylpyridin-2-yl)amino)dibenzo[b,f][1,4]thiazepin-11 (10H)-one], the IC50 in the experiment on HCT116 cells (setting [2]) is below 500 nM.

For the compound `CO[C@H]1C[C@@H](C(=O)Nc2cnc3c(c2)Sc2ccccc2C(=O)N3CC#CC(F)(F)F)C1` [—CH2CCCF3; cis-3-MeOcBu; CH/CH; N], in the experiment with HCT116 cells (setting [1]), the IC50 is below 500 nM.

For the compound `CC#CCN1C(=O)c2ccccc2Sc2cc(NC(=O)c3ccc(OC)nc3)cnc21` [—CH2CCMe; 6-MeO-pyrid-3-yl; CH/CH; N], the IC50 with HCT116 cells (setting [1]) is below 500 nM.

As for `C#CCN1C(=O)c2cc(F)ccc2Sc2cc(NC(=O)C3CC4(CC(=NO)C4)C3)ccc21` (stereo not shown), in the experiment with HCT116 cells (setting [1]), the IC50 was below 500 nM.

Take `COC12CC(C(=O)Nc3cnc4c(c3)Sc3ccccc3C(=O)N4CC#CCF)(C1)C2`: the IC50 in the experiment on HCT116 cells (setting [1]) is below 500 nM.

In the case of `CC#CCN1C(=O)c2ccccc2Sc2cc(Nc3ncnc(C#N)c3C)cnc21`, in the experiment with HCT116 cells (Table 5, HCT116, 72 hours, read-out: Activity), the IC50 is below 500 nM.

In the case of `O=C(Nc1ccc2c(c1)Sc1ccccc1C(=O)N2CC#CC1CC1)C1CC2(COC2)C1`, the IC50 in the experiment on HCT116 cells (setting [1]) was below 500 nM.

`C#CCOCCN1C(=O)c2ccccc2Sc2cc(NC(=O)NC3CCCCC3)ccc21` [Table 3: —(CH2)2OCH2CCH; cHex; CH/CH, 1-Cyclohexyl-3-(11-oxo-10-(2-(prop-2-yn-1-yloxy)ethyl)-10,11-dihydrodibenzo[b,f][1,4]thiazepin-7-yl) urea]: in the experiment with HCT116 cells (Homo sapiens, HCT-116, Table 3, HCT116, 72 hours, read-out: Activity), the IC50 is below 500 nM.

For the compound `CC#CCN1C(=O)c2ccc(C#N)cc2Sc2cc(Nc3cccnn3)ccc21` [10-(But-2-yn-1-yl)-11-oxo-7-(pyridazin-3-ylamino)-10,11-dihydrodibenzo[b,f][1,4]thiazepine-3-carbonitrile], the IC50 in the experiment with HCT116 cells (setting [2]) fell in the range of 1000 to 5000 nM.
